Experimental data as given in patent EP0943615A1, “1,4-DIHYDROPYRIDINE DERIVATIVES” (Nikken Chemicals Company, Limited, priority 1996, dated 1998).

These compounds were tested on VJ-300 cells (assay: In vitro test of action suppressing proliferation of cancer cells, combined administration of doxorubicin (colony formation), resistant cells). Details: ADM alone or ADM + test compound 1 µg/ml, LD50 of ADM relative to ADM alone in KB cells = 1, 7 days incubation, colony count.
Type: cell-based, Human
Protocol: Human rhinopharynx cancer derived KB cells (i.e., sensitive cells) and their multi-drug resistant clone VJ-300 cells (i.e., resistant cells) were used as the test cells. As the incubation solutions, use was made of 10% fetal calf serum (Flow Laboratories) and Eagle MEM medium (Nissui Seiyaku) containing 0.292 mg/ml of L-glutamine (Flow Laboratories). The tests of the action for overcoming resistance to anti-cancer drugs or action for increasing the effect of the anti-cancer drug with the combined administration of the anti-cancer drug doxorubicin (i.e., adriamycin, ADM) and the test compound were performed as follows:
The test cells were suspended in incubation solutions and adjusted to a cell density of about 200 cells/ml. The cell suspensions were injected in 2 ml amounts into petri dishes and were incubated in a CO2 gas incubator (5% CO2, 95% air) at 37°C for 24 hours. Then, 5 µl of a predetermined concentration of the aqueous ADM solution and a predetermined concentration of a DMSO solution of the test compound were added, then the incubation was continued for a further 7 days. After the end of the incubation, the result was immobilized with methanol, Giemsa stained and measured for the number of colonies per dish. The results were used to prepare a volume-reaction curve. […] The results are shown in Table 8 to Table 10 using the concentration of LD50 of ADM in the ADM alone group by KB cells as the resistance degree 1 and calculating the resistances of the following LD50 concentrations as relative ratios. […]

Row | SMILES | Degree of resistance for ADM VJ-300
1 | CCOC(=O)C1=C(c2ccc(-n3c(C)nc4cnccc43)cc2)NC(C)=C(C(=O)OC/C=C/c2cccnc2)C1C=C1CCCCC1 (stereo not drawn) [Compound 29, 4-cyclohexylidenemethyl-6-methyl-2-[4-(2-methylimidazo[4,5-c]pyridin-1-yl)phenyl]-1,4-dihydropyridin-3,5-dicarboxylate 3-ethylester, 5-[(E)-3-(3-pyridyl)-2-propenyl]ester] | 1.2
2 | CCOC(=O)C1=C(c2ccc(N3CCN(C)CC3)cc2)NC(C)=C(C(=O)OC/C=C/c2cccnc2)C1/C=C/c1ccccc1 (stereo not drawn) [Compound 30, 6-methyl-2-[4-(4-methylpiperadin-1-yl)phenyl]-1,4-dihydropyridin-4-[(E)-2-phenylethenyl]-3,5-dicarboxylate 3-ethylester, 5-[(E)-3-(3-pyridyl)-2-propenyl]ester] | 1.0
3 | CCOC(=O)C1=C(c2ccc(SC)cc2)NC(C)=C(C(=O)OC/C=C/c2cccnc2)C1/C=C/c1ccccc1 (stereo not drawn) [Compound 31, 6-methyl-2-(4-methylthiophenyl)-1,4-dihydropyridin-4-[(E)-2-phenylethenyl]-3,5-dicarboxylate 3-ethylester, 5-[(E)-3-(3-pyridyl)-2-propenyl]ester] | 2.6
4 | CCOC(=O)C1=C(c2ccc(-n3nnc4ccccc43)cc2)NC(C)=C(C(=O)OC/C=C/c2cccnc2)C1/C=C/c1ccccc1 (stereo not drawn) [Compound 32, 2-[4-(1H-benzotriazol-1-yl)phenyl]-6-methyl-4-[(E)-2-phenylethenyl]-1,4-dihydropyridin-3,5-dicarboxylate 3-ethylester, 5-[(E)-3-(3-pyridyl)-2-propenyl]ester] | 1.4
5 | CCOC(=O)C1=C(c2ccc(N3CCOCC3)cc2)NC(C)=C(C(=O)OC/C=C/c2cccnc2)C1/C=C/c1ccccc1 (stereo not drawn) [Compound 34, 6-methyl-2-(4-morpholinophenyl)-4-[(E)-2-phenylethenyl]-1,4-dihydropyridin-3,5-dicarboxylate 3-ethylester, 5-[(E)-3-(3-pyridyl)-2-propenyl]ester] | 3.0
6 | CCOC(=O)C1=C(c2ccc(-n3ccc4ccccc43)cc2)NC(C)=C(C(=O)OC/C=C/c2cccnc2)C1/C=C/c1ccccc1 (stereo not drawn) [Compound 35, 2-[4-(1-indolyl)phenyl]-6-methyl-4-[(E)-2-phenylethenyl]-1,4-dihydropyridin-3,5-dicarboxylate 3-ethylester, 5-[(E)-3-(3-pyridyl)-2-propenyl]ester] | 3.0
7 | CCOC(=O)C1=C(c2cccc(-n3ccnc3)c2)NC(C)=C(C(=O)OC/C=C/c2cccnc2)C1/C=C/c1ccccc1 (stereo not drawn) [Compound 36, 2-[3-(1-imidazolyl)phenyl]-6-methyl-4-[(E)-2-phenylethenyl]-1,4-dihydropyridin-3,5-dicarboxylate 3-ethylester, 5-[(E)-3-(3-pyridyl)-2-propenyl]ester] | 1.0
8 | CCCCCC1C(C(=O)OC/C=C/c2cccnc2)=C(C)NC(c2cccc(-n3ccnc3)c2)=C1C(=O)OCC (stereo not drawn) [Compound 37, 2-[3-(1-imidazolyl)phenyl]-6-methyl-4-pentyl-1,4-dihydropyridin-3,5-dicarboxylate 3-ethylester, 5-[(E)-3-(3-pyridyl)-2-propenyl]ester] | 2.5
9 | COC(=O)C1=C(c2ccc(-n3ccnc3)cc2)NC(C)=C(C(=O)OC/C=C/c2cccnc2)C1C1CCCCC1 (stereo not drawn) [Compound 38, 4-cyclohexyl-2-[4-(1-imidazolyl)phenyl]-6-methyl-1,4-dihydropyridin-3,5-dicarboxylate 3-methylester, 5-[(E)-3-(3-pyridyl)-2-propenyl]ester] | 2.4
10 | COC(=O)C1=C(c2ccc(-n3ccnc3)cc2)NC(C)=C(C(=O)OC/C=C/c2cccnc2)C1/C=C/c1ccccc1 (stereo not drawn) [Compound 39, 2-[4-(1-imidazolyl)phenyl]-6-methyl-1,4-dihydropyridin-4-[(E)-2-phenylethenyl]-3,5-dicarboxylate 3-methylester, 5-[(E)-3-(3-pyridyl)-2-propenyl]ester] | 1.2
11 | COC(=O)C1=C(c2ccc(-n3ccnc3)cc2)NC(C)=C(C(=O)OC/C=C/c2cccnc2)C1C#Cc1ccccc1 (stereo not drawn) [Compound 40, 2-[4-(1-imidazolyl)phenyl]-6-methyl-4-phenylethynyl-1,4-dihydropyridin-3,5-dicarboxylate 3-methylester, 5-[(E)-3-(3-pyridyl)-2-propenyl]ester] | 2.5
12 | COC(=O)C1=C(c2ccc(-n3c(C)nc4cnccc43)cc2)NC(C)=C(C(=O)OC/C=C/c2cccnc2)C1/C=C/c1ccsc1 (stereo not drawn) [Compound 41] | 7.8
13 | COC(=O)C1=C(c2ccc(-n3c(C)nc4cnccc43)cc2)NC(C)=C(C(=O)OC/C=C/c2cccnc2)C1/C=C/c1ccccc1 (stereo not drawn) [Compound 42, 6-methyl-2-[4-(2-methylimidazo[4,5-c]pyridin-1-yl)phenyl]-4-[(E)-2-phenylethenyl]-1,4-dihydropyridin-3,5-dicarboxylate 3-methylester, 5-[(E)-3-(3-pyridyl)-2-propenyl]ester] | 2.1
14 | CCCCCC1C(C(=O)OCCCc2cccnc2)=C(C)NC(c2ccc(-n3ccnc3)cc2)=C1C(=O)OCC (stereo not drawn) [Compound 44, 2-[4-(1-imidazolyl)phenyl]-6-methyl-4-pentyl-1,4-dihydropyridin-3,5-dicarboxylate 3-ethylester, 5-[3-(3-pyridyl)propyl]-ester] | 1.4
15 | CCOC(=O)C1=C(c2ccc(-n3c(C)nc4cnccc43)cc2)NC(C)=C(C(=O)OCCCC(=O)c2cccnc2)C1CCCC1CCCCC1 (stereo not drawn) [Compound 45, 4-(3-cyclohexylpropyl)-6-methyl-2-[4-(2-methylimidazo[4,5-c]pyridin-1-yl)phenyl]-1,4-dihydropyridin-3,5-dicarboxylate 3-ethylester, 5-(3-nicotinoylpropyl)ester] | 2.6
16 | CCOC(=O)C1=C(c2ccc(-n3c(C)nc4cnccc43)cc2)NC(C)=C(C(=O)OCCCC(=O)c2cccnc2)C1C=C1CCCCC1 (stereo not drawn) [Compound 46, 4-cyclohexylidenemethyl-6-methyl-2-[4-(2-methylimidazo[4,5-c]pyridin-1-yl)phenyl]-1,4-dihydropyridin-3,5-dicarboxylate 3-ethylester 5-(3-nicotinoylpropyl)ester] | 2.5
17 | CCOC(=O)C1=C(c2ccc(-n3c(C)nc4cnccc43)cc2)NC(C)=C(C(=O)OCCCC(=O)c2cccnc2)C1/C=C/c1ccccc1 (stereo not drawn) [Compound 47, 6-methyl-2-[4-(2-methylimidazo[4,5-c]pyridin-1-yl)phenyl]-4-[(E)-2-phenylethenyl]-1,4-dihydropyridin-3,5-dicarboxylate 3-ethylester, 5-(3-nicotinoylpropyl)ester] | 1.2
18 | CCOC(=O)C1=C(c2ccc(-n3cnc4ccccc43)cc2)NC(C)=C(C(=O)OCCCC(=O)c2cccnc2)C1C=C1CCCCC1 (stereo not drawn) [Compound 48, 4-cyclohexylidenemethyl-6-methyl-2-[4-(1-benzimidazolyl)phenyl]-1,4-dihydropyridin-3,5-dicarboxylate 3-ethylester, 5-(3-nicotinoylpropyl)ester] | 1.7
